# Laboratory results: publication PMC3338484
# Values joined by “and” are separate entries in the source; they are usually repeats but may differ in a detail not shown here. Equal entries are not always repeated.
# Key:
# [1] = biological target: T1, PaFolD (Pseudomonas aeruginosa, UniProt Q9I2U6); assay: FolD enzyme assay (absorbance at 350 nm), IC50 determination; format: biochemical; details: for Hill coefficient: from PaFolD IC50 curves
# T1 construct: hexa-histidine tag with TEV protease site (N, cleaved yes); made in house; host or cells: E. coli BL21 (DE3)
# T1 sequence (Q9I2U6 whole entry): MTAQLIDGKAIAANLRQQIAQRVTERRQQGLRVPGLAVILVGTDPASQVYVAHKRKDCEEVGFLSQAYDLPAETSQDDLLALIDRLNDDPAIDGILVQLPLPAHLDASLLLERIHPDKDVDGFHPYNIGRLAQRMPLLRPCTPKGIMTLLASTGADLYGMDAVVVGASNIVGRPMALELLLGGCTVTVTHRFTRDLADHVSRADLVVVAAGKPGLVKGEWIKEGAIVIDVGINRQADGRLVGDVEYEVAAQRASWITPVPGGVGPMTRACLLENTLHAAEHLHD
# Description: Enzyme activity was assayed by measuring the absorbance at 350 nm of the intermediate product in the reaction, N ^5,N ^10-methenyl-THF, following acidification of the reaction and consequent reconversion of the final product formyl-THF to the intermediate. Following optimization of the assay buffer and determination of the enzyme linearity, assays were carried out at room temperature in a 50 µL reaction volume containing 25 mM bicine, pH 7.9, 1 mM dithiothreitol, 0.05% CHAPS, 0.2 mg mL^−1 BSA, 1 nM recombinant FolD, […] NADP^+ and 35 µM N ^5,N ^10-methylene-THF. Michaelis constants for the two substrates (NADP^+ and N ^5,N ^10-methylene-THF) were determined in an end-point assay, using these buffer and enzyme conditions.
# The HTS was performed with a compound collection of 79,029 diverse structures based around 4000 chemical scaffolds. All compounds were dissolved in 100% DMSO to a concentration of 3 mM. Single point inhibition assays were carried out at room temperature in clear, flat bottom, polystyrene, 384-well plates (Matrix). Each assay was performed in a 50 µL reaction volume as described above. A standard compound (0.5 µL in DMSO) was transferred to all assay plates using a Cartesian Hummingbird (Genomics Solutions) before 25 µL of a reaction mix, containing all assay components except NADP^+ and N ^5,N ^10-methylene-THF, was added to assay plates using a Thermo Scientific Well-Mate (Matrix). The reaction was initiated and stopped with the additions of 25 µL of substrate and 50 µL of 1 M HCl, respectively, again using a Well-Mate. The FolD assay was run at room temperature for 20 min and the signal was allowed to develop for 10 min before the absorbance of each well was read at 350 nm using an EnVision multilabel plate reader (PerkinElmer Life Sciences). ActivityBase (ID Business Solutions) was used for data processing and analysis.
# Compounds of interest were cherry picked from the original library plates using a series of 10-point inhibitor curves (consisting of half-log serial dilutions of compound in DMSO) and prepared in 384-well plates using a JANUS workstation (PerkinElmer Life Sciences). Each compound plate produced 10-point inhibitor curves for 30 test compounds and two curves for LY374571, the standard compound in this screen (see following paragraph for inhibitor details). Following preparation of the inhibitor curves, assays were carried out as described above. ActivityBase was again used for data processing and analysis. All IC50 curve fitting was undertaken within ActivityBase XE utilizing the underlying ‘MATH IQ’ engine of XLfit version 5.1.0.0. A four-parameter logistic dose-response curve was utilized for compound potency determination.
# Enzyme activity was assayed in an optimised buffer at 1 nM PaFolD. […] When saturating concentrations of either substrate or co-factor were required N ^5,N ^10-methylene-THF was used at 250 µM and NADP^+ at 1 mM. For screening the compound library N ^5,N ^10-methylene-THF was fixed at a concentration of 35 µM and NADP^+ was saturating at 1 mM and the assay was stopped after 20 minutes (within the linear range of the assay).
# [2] = biological target: T1, PaFolD; assay: Surface plasmon resonance (SPR) binding to biotinylated PaFolD; details: for binding to PaFolD by SPR: running buffer with 1 mM NADP+, 1% DMSO, data not shown; for rate of association (SPR): association measured for 1 min, LY374571 could not compete off this binding
# Description: For analysis of compounds using SPR it was necessary to produce an expression system that provided a protein carrying a biotinylation acceptor peptide (BAP-tag). This BAP-tag peptide has the sequence 5′ - […] - 3′ and is specifically biotinylated by the E. coli biotin holoenzyme synthetase, BirA. The modified PaFolD was then purified as before. Subsequently 30 µM of BAP-tagged PaFolD was incubated at 37°C overnight in buffer C (10 mM Tris-HCl pH 7.5, 200 mM KCl, 5 mM MgCl2, 100 µM d-biotin) containing 500 µM ATP and 1 µM BirA. The sample was passed through a HisTrap HP column equilibrated with buffer A to remove BirA. The flow through was collected and concentrated (Amicon 10 kDa MWCO spin column) to remove free biotin. The incorporation of biotin was monitored by MALDI-TOF analysis performed at the University of Dundee ‘Fingerprints’ Proteomics Facility using an Applied Biosystems Voyager DE-STR spectrometer. The biotinylated protein was flash frozen at 10 mg mL^−1 in 50 mM Tris-HCl, 250 mM NaCl, 15% glycerol, pH 7.5 and stored at −80°C until required.
# A Biacore T100 instrument (GE Healthcare) was used for all SPR experiments. Biotinylated PaFolD was diluted 50-fold into a running buffer containing 50 mM Tris-HCl, pH 7.5, 150 mM NaCl, 5 mM MgCl2, 1 mM DTT, 0.05% Tween 20, 1 mM NADP^+ and 1% DMSO and injected over a streptavidin chip (GE Healthcare) at a flow rate of 10 µL min^−1 for 10 min to obtain a density of ∼4,000 response units. Compounds DDD55519 and DDD61461 were injected in duplicates at three-fold concentration series 136 nM–11 µM at a flow rate 30 µL min^−1. Association was measured for 1 min and dissociation for 20 min. Compounds DDD32388 and DDD58331 were injected at three-fold concentration series of between 1.23 µM–100 µM at a flow rate 30 µL min^−1. Association was measured for 1 min and dissociation 2 min. Data were referenced from a blank streptavidin surface and blank injections of buffer. Processing was carried out using Scrubber 2 software (BioLogic Software, Australia).
# [3] = biological target: T1, PaFolD; assay: Differential scanning fluorimetry (DSF) thermal shift screen; format: binding; details: standards at 250 µM; 4 µM PaFolD, 4 mM NADP+
# Text: It was reasoned that such conditions would favour crystallization. In addition two compound libraries, the Maybridge fragment set and the Prestwick collection of biologically active molecules, were screened after first assessing the suitability of the method for PaFolD, the optimum buffer and cofactor conditions and the lowest concentration of protein that generated a strong signal as previously described for our laboratory. An Mx3005p RT PCR system (Stratagene) was used to monitor protein unfolding by the increase in fluorescence of SYPRO Orange dye (Invitrogen). Briefly, the enzyme was tested against 1000 compounds from the Maybridge Rule of Three (Ro3) fragment library and 1120 compounds from the Prestwick Chemical Library. Assays were carried out in 40 µL volumes with PaFolD at 4 µM, supplemented with 4 mM NADP^+ in 50 mM Tris-HCl, 250 mM NaCl, pH 7.5 in 96 well RT PCR plates (Abgene). […] After each 1°C increase the sample was excited at 492 nm and fluorescence emissions recorded at 610 nm. […]
# In advance of performing a large-scale HTS, PaFolD was assayed combining DSF with the Prestwick Chemical Library of drug-like molecules (1,200 compounds) and a bespoke Maybridge RO3 fragment library of 1,000 compounds. […] A number of compounds in the Prestwick library gave apparent thermal shifts of approximately +10°C, however all of these were rejected due to their intrinsic fluorescence. […]
# [4] = test system: P. aeruginosa PAO1 ATCC 15692; assay: Disc diffusion sensitivity testing; format: cell-based, Pseudomonas aeruginosa; details: for clearance in disc diffusion sensitivity assay: six dilutions, approximately 115 µg to 4.5 ng per disc, zones measured after 16 and 48 hours, data not shown
# Description: Compounds identified by HTS were used in a disc diffusion sensitivity test against P. aeruginosa. Briefly a single colony of P. aeruginosa PAO1 ATCC 15692 was used to inoculate a 2 mL volume of LB media prior to overnight growth at 37°C. The bacteria were then diluted 1∶100 fold prior to 100 µL volumes plated onto Iso-Sensitest agar plates and dried in air for 5 minutes. Eight 3 mm discs were impregnated with 5 µl of compound, dissolved in DMSO, prior to loading onto each plate. Two controls were used per plate, one a 100% DMSO stock, the other a 10 µg stock of gentamycin. Six compound dilutions were tested per plate, ranging from approximately 115 µg to 4.5 ng. Three compounds with known antifolate activity were tested, namely methotrexate, LY354899 and LY374571 in addition to the three singletons, DDD32388, DDD55519 and DDD61461, and two of the biaryl sulphonamide series that had been identified. Plates were incubated at 37°C, and zones of inhibition measured after 16 and 48 hours.
# [5] = test system: HsFolD; details: slightly different assay conditions; read-out: IC50 against HsFolD; cited from earlier work
# [6] = IC50 (μM), confirmed HTS hits, ten-point dose response, 30 µM to 1 nM
compound,measurement,setting,value
CCOc1nc(N)nc(N)c1S(=O)(=O)c1ccc(Cl)cc1 [DDD32388],IC50,[1]; [6],0.9 µM
same,Hill coefficient,[1],1.6
same,binding to PaFolD by SPR,[2],weak
"Nc1nc2c(c(=O)[nH]1)N1C(=O)N(c3ccc(C(=O)N[C@@H](CCC(=O)O)C(=O)O)cc3)CC1CN2 (stereo partly shown) [LY354899, 5,6,7,8-tetrahydro-N ^5,N ^10-carbonylfolic acid]",thermal shift,[3],+9 °C
same,clearance in disc diffusion sensitivity assay,[4],failed to give any clearance
"Nc1nc(O)c(N)c(NC(=O)Nc2ccc(C(=O)N[C@H](CCC(=O)O)C(=O)O)cc2)n1 [LY374571, (2R)-2-[(4-{[(2,5-diamino-6-hydroxypyrimidin-4-yl)carbamoyl]amino}phenyl)formamido] pentanedioic acid]",ΔTm at 250 µM,[3],15 °C
same,IC50,"[1]; IC50 against PaFolD, 1 nM PaFolD, 35 µM N5,N10-methylene-THF, 1 mM NADP+, 20 min",~0.03 µM and 0.027 µM
same,clearance in disc diffusion sensitivity assay,[4],failed to give any clearance
same,IC50,[5],3 nM
NC(=O)c1ccc[n+]([C@@H]2O[C@H](COP(=O)([O-])OP(=O)(O)OC[C@H]3O[C@@H](n4cnc5c(N)ncnc54)[C@H](OP(=O)(O)O)[C@@H]3O)[C@@H](O)[C@H]2O)c1 [NADP^+],Km,"[1]; 1 nM PaFolD, end-point assay, other substrate saturating, mean ± SD (n = 4), read-out: Michaelis constant (Km)",179 ± 11 µM
Cc1[nH]c2c(C#N)cnn2c(=O)c1Cc1ccccc1 [DDD55519],IC50,[1]; [6],3.8 µM
same,Hill coefficient,[1],1.2
same,rate of association (SPR),[2],slow rates of association
same,binding to PaFolD by SPR,[2],confirmed
gentamycin,radius cleared (zone of inhibition),"[4]; 10 µg stock control disc, P. aeruginosa PAO1",13 mm
Oc1cc(C(F)(F)F)nc(SCc2c(F)cccc2Cl)n1 [DDD61461],IC50,[1]; [6],2.5 µM
same,Hill coefficient,[1],2.6
same,rate of association (SPR),[2],slow rates of association
same,binding to PaFolD by SPR,[2],confirmed
